The results in this text go back to US8394971B2, “Indole derivatives as selective androgen receptor modulators (SARMS)” (Janssen Pharmaceutica N.V., priority 2004, dated 2013).

In general, % Inhibition refers to the drop in the measured response relative to a control, in per cent.

The assay addresses T1, androgen receptor (adenovirus AdEasy+rAR in L929 cells) (Rattus norvegicus, UniProt P15207).
T1 construct: expressed in transfected cells
T1 sequence (P15207 1-902): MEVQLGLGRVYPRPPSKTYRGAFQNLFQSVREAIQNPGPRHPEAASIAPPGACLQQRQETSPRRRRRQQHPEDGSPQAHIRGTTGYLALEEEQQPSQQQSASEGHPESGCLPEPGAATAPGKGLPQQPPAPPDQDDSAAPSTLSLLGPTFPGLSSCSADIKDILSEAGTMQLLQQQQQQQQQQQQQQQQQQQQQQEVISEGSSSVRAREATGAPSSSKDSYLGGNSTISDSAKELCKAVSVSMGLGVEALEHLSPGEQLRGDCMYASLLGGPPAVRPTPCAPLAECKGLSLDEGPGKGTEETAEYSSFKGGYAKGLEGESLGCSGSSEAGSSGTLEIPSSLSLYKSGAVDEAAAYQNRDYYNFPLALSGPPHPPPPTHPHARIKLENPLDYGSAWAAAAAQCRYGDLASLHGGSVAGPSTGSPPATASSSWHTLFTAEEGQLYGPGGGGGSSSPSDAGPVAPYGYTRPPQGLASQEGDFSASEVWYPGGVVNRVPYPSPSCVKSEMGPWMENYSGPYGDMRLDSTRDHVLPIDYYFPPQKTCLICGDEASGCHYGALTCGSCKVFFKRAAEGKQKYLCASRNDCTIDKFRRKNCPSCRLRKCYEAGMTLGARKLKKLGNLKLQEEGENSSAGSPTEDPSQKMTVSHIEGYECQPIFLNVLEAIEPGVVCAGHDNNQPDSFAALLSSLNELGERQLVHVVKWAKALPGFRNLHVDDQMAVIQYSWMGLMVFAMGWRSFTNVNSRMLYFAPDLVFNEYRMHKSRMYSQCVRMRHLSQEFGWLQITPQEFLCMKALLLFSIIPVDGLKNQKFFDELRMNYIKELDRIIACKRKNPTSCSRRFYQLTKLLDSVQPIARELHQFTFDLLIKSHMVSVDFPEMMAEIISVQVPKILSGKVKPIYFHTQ
Description: L929 Androgen Receptor Functional Assay, Adenovirus Transduction. The note with it: 3000 nM; for % Activity: L929 agonist testing; for % Inhibition: L929 antagonist testing with R1881. It is filed as cell-based. Put shortly: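 Luminescent reporter readout after 48 h at 37 °C: rat AR delivered by adenovirus (AdEasy+rAR, moi 1:500) into L929 cells grown without phenol red in charcoal-treated serum. Antagonist wells also received R1881 (2.5× dilution at 2.5 nM).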

`CC(C)CSCC(C)(O)c1cc2cc([N+](=O)[O-])c(C(F)(F)F)cc2[nH]1` (racemic) [compound 170]: the “% Activity” value came out at 2% and the “% Inhibition” value is on record as 67%. In the same order, the values of `CSCCC(C)(O)c1cc2cc([N+](=O)[O-])c(C(F)(F)F)cc2[nH]1` (racemic) [compound 47] are 2% and 75%.

Regarding `CC(O)(C[S+]([O-])Cc1ccccc1)c1cc2cc([N+](=O)[O-])c(C(F)(F)F)cc2[nH]1` (mixture of isomers) [compound 161], the “% Activity” value came out at 2%. In the case of `COc1ccc(SCC(C)(O)c2cc3cc(Cl)c(C(F)(F)F)cc3n2S(C)(=O)=O)cc1` (racemic) [compound 130], the “% Activity” value is given as −5%.

For `COc1ccc(S(=O)(=O)CC(C)(O)c2cc3cc(Cl)c(C(F)(F)F)cc3[nH]2)cc1` (racemic) [compound 129], the “% Activity” value is listed as −5% and the “% Inhibition” value was −8%.
